27 molecules from US10118902B2 (Sanford Burnham Prebys Medical Discovery Institute, priority 2014, dated 2018) can be followed below.

In this test the target is neurotensin receptor 1 (NTR1) (Homo sapiens (Human), UniProt P30989). The experiment in a line: NTR1 dose response, high-content imaging beta-arrestin-GFP assay in NTR1-U2OS cells. The note with it: read-out: EC50. Type of test: cell-based. The text has this:
The cell lines utilized in the high-content imaging assays, which include the NTR1-, NTR2-, and GPR35-U2OS osteosarcomas, were obtained from the laboratory of Dr. Lawrence Barak at the Duke University Medical Center. The media used in the culture of the cell lines, as well as the assays themselves, consisted of Minimum Essential Medium (15-010-CM) and L-glutamine (25-005-CL) from Cellgro/Mediatech (Manassas, Va.), fetal bovine serum (SH30396.03) from Hyclone (Logan, Utah), penicillin-streptomycin solution (PS-20) from Omega Scientific in Tarzana, Calif., G418 (ant-gn-1) from Invivogen (San Diego, Calif.), and zeocin (R250-01) from Invitrogen (Carlsbad, Calif.). Cell lines were cultured in T225 tissue culture flasks (431082) supplied by Corning (Corning, N.Y.). Additional reagents employed include Dulbecco's Phosphate-Buffered Saline (DPBS) (21-031CV) from Cellgro/Mediatech, Trypsin-EDTA 0.05% (25300) from Invitrogen, paraformaldehyde (30528954) from Acros Organics (Geel, Belgium), Hoechst 33342 (H3570) from Invitrogen. The high-content assays were run in 1536-well plates (29326) supplied by Aurora Biotechnology (Poway, Calif.) and utilized aluminum plate seals (T592100) from E&K Scientific (Santa Clara, Calif.). […]
The high-content imaging based NTR1 primary screen in 1536-well format was utilized to assay the MLSMR library of chemical entities in the following manner. On day one, 4 uL of a cell suspension containing 350,000 NTR1-U2OS cells per mL is added to each well of a 1536-well assay plate. Cells are plated in MEM medium containing 2.5% Fetal Bovine Serum, 1% Penicillin/Streptomycin solution, 1% L-Glutamine, 400 ug/mL G418, and 200 ug/mL Zeocin. The assay plates are then incubated overnight at 37° C., under 5% CO2. Following the overnight incubation, a volume of 60 nL of the compounds at 2 mM in DMSO (final 20 μM, 1% DMSO) was transferred to columns 5-48 of the assay plates using a LabCyte Echo Liquid Handler. Next, 60 nL of DMSO were dispensed to columns 1-4, which served as the positive and neutral control wells. […] The assay plates were centrifuged on an Eppendorf 5810 centrifuge at 1000 rpm for 1 min to ensure even liquid levels in the wells of the assay plates. The assay plates were then returned to the incubator for 1 hour. Following the hour-long incubation at 37° C., the cells in each well were fixed with 4 uL of 6% paraformaldehyde added with a Multidrop Combi. The assay plates were centrifuged as before and incubated at room temperature for 1 hour. On the Kalypsys, plates were then aspirated down to 2.5 uL per well and washed twice with 11 uL per well of DPBS, followed by a final aspiration to 2.5 uL per well. On the Combi dispenser, 5 uL of 5 ug/mL Hoechst 33342 diluted in DPBS was added to each well of assay plates. The plates were again centrifuged as previously described, sealed, and incubated for at least 1 hour prior to being loaded on a PerkinElmer Opera QEHS.
Image acquisition was performed with a 45 plate capacity loader/stacker and the following settings: 40×0.6 NA air objective, acquisition camera set to 2-by-2 binning for an image size of 688 by 512 pixels, beta-arrestin-GFP acquired using 488 nm laser excitation and 540/75 nm emission filters, DAPI (nuclei) using 365 nm Xenon lamp excitation and 450/50 nm emission filters, 3 fields per well. Image analysis was performed using the Acapella Spot Detection Algorithm. For analysis settings and the metrics employed in the data analyses, please refer to supplemental information.
Compounds that were successfully confirmed in quadruplicate at 20 uM were then run in dose response in the primary assay. As with the single concentration hit confirmation, the assay was performed in an identical manner as the primary screen with the following modifications. […]

Chain of neurotensin receptor 1 (NTR1) (P30989 whole entry, species assumed): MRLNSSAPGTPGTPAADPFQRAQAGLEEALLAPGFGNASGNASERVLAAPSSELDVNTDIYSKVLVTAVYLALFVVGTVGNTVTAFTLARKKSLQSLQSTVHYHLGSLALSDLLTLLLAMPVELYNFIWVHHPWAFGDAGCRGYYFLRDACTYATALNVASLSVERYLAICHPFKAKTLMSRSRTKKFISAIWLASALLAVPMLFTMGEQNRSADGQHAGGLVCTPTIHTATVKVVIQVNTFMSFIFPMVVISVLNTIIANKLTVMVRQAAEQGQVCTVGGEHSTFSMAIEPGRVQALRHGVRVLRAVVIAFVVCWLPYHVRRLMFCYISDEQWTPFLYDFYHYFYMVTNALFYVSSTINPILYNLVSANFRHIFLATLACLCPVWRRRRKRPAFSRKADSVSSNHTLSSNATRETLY

On to `COc1ccc(F)cc1C1CCN(c2nc(C3CC3)nc3cc(C)c(N(C)CCO)cc23)CC1` [Example 115, 2-({2-cyclopropyl-4-[4-(5-fluoro-2-methoxy-phenyl)-piperidin-1-yl]-7-methyl-quinazolin-6-yl}-methyl-amino)-ethanol], for which the EC50 was 2 to 10 µM.

As for `COc1ccccc1C1CCN(c2nc(C3(C(F)(F)F)CC3)nc3ccc(N(C)CCN4CCOCC4)cc23)CC1` [Example 48], the EC50 was in the range of 2 to 10 µM.

Turning to `CN(C)c1ccccc1C1CCN(c2nc(C3(F)CCCC3)nc3ccc(N(C)CCO)cc23)CC1` [Example 75, 2-{[4-[4-(2-dimethylamino-phenyl)-piperidin-1-yl]-2-(1-fluoro-cyclopentyl)-quinazolin-6-yl]-methyl-amino}-ethanol], the EC50 lay within 2 to 10 µM. Regarding `COc1ccccc1C1CCN(c2nc(C3(C(F)(F)F)CCC3)nc3ccc(N(C)CCN4CCOCC4)cc23)CC1` [Example 64, [4-[4-(2-methoxy-phenyl)-piperidin-1-yl]-2-(1-trifluoromethyl-cyclobutyl)-quinazolin-6-yl]-methyl-(2-morpholin-4-yl-ethyl)-amine], the EC50 was greater than 10 µM. With `CCCN(C)c1ccc2nc(C3CC3)nc(N3CCN(C4CCCC4O)CC3)c2c1` (stereo not drawn) [Example 141, 2-{4-[2-cyclopropyl-6-(methyl-propyl-amino)-quinazolin-4-yl]-piperazin-1-yl}-cyclopentanol] the figure was greater than 10 µM; with `COc1ccsc1C1CCN(c2nc(C3CC3)nc3ccc(N(C)CCO)cc23)CC1` [Example 138, 2-((2-cyclopropyl-4-(4-(3-methoxythiophen-2-yl)piperidin-1-yl)quinazolin-6-yl)(methyl)amino)ethanol], 0.5 to 2 µM. The value for `COc1nccnc1C1CCN(c2nc(C3(F)CC3)nc3c(F)cc(N(C)CCO)cc23)CC1` [Example 213, 2-({8-Fluoro-2-(1-fluoro-cyclopropyl)-4-[4-(3-methoxy-pyrazin-2-yl)-piperidin-1-yl]-quinazolin-6-yl}-methyl-amino)-ethanol] was 0.5 to 2 µM; that for `CCCN(C)c1cccc2nc(C3CC3)nc(N3CCC(c4ccccc4OC)CC3)c12` [Example 131, {2-cyclopropyl-4-[4-(2-methoxy-phenyl)-piperidin-1-yl]-quinazolin-5-yl}-methyl-propyl-amine] was 2 to 10 µM; that for `COc1cccc2c1CCN(c1nc(C3CC3)nc3ccc(N(C)CCO)cc13)CC2` [Example 150, 2-{[2-cyclopropyl-4-(6-methoxy-1,2,4,5-tetrahydro-benzo[d]azepin-3-yl)-quinazolin-6-yl]-methyl-amino}-ethanol] was greater than 10 µM. The value for `COc1ccccc1C1CCN(c2nc(C3(F)CCC3)nc3c(Cl)cc(N4CC[C@@H](O)C4)cc23)CC1` [Example 182] was 2 to 10 µM. As for `CCCN(CCC)c1ccc2nc(N(C)C)nc(N3CCC(c4ccccc4OC)CC3)c2c1` [Example 96, 4-(4-(2-methoxyphenyl)piperidin-1-yl)-N2,N2-dimethyl-N6,N6-dipropylquinazoline-2,6-diamine], the concentration for a half-maximal effect (EC50) is greater than 10 µM. Regarding `CN(CCO)c1ccc2nc(C3(F)CC3)nc(N3CCC(C4CCCCC4)CC3)c2c1` [Example 139, 2-((4-(4-cyclohexylpiperidin-1-yl)-2-(1-fluorocyclopropyl)quinazolin-6-yl)(methyl)amino)ethanol], the EC50 is greater than 10 µM. With `COc1ccccc1C1CCN(c2nc(C3CC3)nc3ccc(N(C)CC(=O)O)cc23)CC1` [Example 179, ({2-Cyclopropyl-4-[4-(2-methoxy-phenyl)-piperidin-1-yl]-quinazolin-6-yl}-methyl-amino)-acetic acid], the EC50 is less than 0.5 µM. The value for `COCCN(C)c1ccc2nc(C3CC3)nc(N3CCC(c4ccccc4N4CCC4)CC3)c2c1` [Example 7, {4-[4-(2-azetidin-1-yl-phenyl)-piperidin-1-yl]-2-cyclopropyl-quinazolin-6-yl}-(2-methoxy-ethyl)-methyl-amine] was 2 to 10 µM; that for `CN(C)c1ccccc1C1CCN(c2nc(C3CC3)nc3ccc(N(C)CCN4CCCC4)cc23)CC1` [Example 13, {2-cyclopropyl-4-[4-(2-dimethylamino-phenyl)-piperidin-1-yl]-quinazolin-6-yl}-methyl-(2-pyrrolidin-1-yl-ethyl)-amine] was 2 to 10 µM. As for `COc1ccccc1C1CCN(c2nc(C3(C)CCCC3)nc3ccc(N(C)CCN4CCOCC4)cc23)CC1` [Example 52], the EC50 is 2 to 10 µM. With `COc1ccccc1C1CCN(c2nc(C3CC3)nc(C)c2CC(=O)N(C)C)CC1` [Example 157, 2-{2-cyclopropyl-4-[4-(2-methoxy-phenyl)-piperidin-1-yl]-6-methyl-pyrimidin-5-yl}-N,N-dimethyl-acetamide] the figure was greater than 10 µM; with `CCCN(C)c1ccc2nc(C3CC3)nc(N3CC4(CN(c5ccccc5OC)C4)C3)c2c1` [Example 100, {2-cyclopropyl-4-[6-(2-methoxy-phenyl)-2,6-diaza-spiro [3.3]hept-2-yl]-quinazolin-6-yl}-methyl-propyl-amine], 2 to 10 µM; with `COc1ccccc1C1CCN(c2nc(C3CC3)nc3ccc(CN(C)C)cc23)CC1` [Example 86, {2-cyclopropyl-4-[4-(2-methoxy-phenyl)-piperidin-1-yl]-quinazolin-6-ylmethyl}-dimethyl-amine], greater than 10 µM.

Regarding `COCCN(C)c1ccc2nc(-c3ccccc3)nc(N3CCC(c4ccccc4OC)CC3)c2c1` [Example 145, (2-methoxy-ethyl)-{4-[4-(2-methoxy-phenyl)-piperidin-1-yl]-2-phenyl-quinazolin-6-yl}-methyl-amine], the EC50 is greater than 10 µM.

On to `COc1ccccc1C1CCN(c2nc(C3CC3)nc(C)c2CC(=O)Nc2ccccc2)CC1` [Example 160], for which the EC50 was greater than 10 µM. As to `COc1ccccc1C1CCN(c2nc(C3CC3)nc3ccc(N4CCC(OC)C4)cc23)CC1` (stereo not drawn) [Example 80, 2-cyclopropyl-4-[4-(2-methoxy-phenyl)-piperidin-1-yl]-6-(3-methoxy-pyrrolidin-1-yl)-quinazoline], the EC50 was in the range of 0.5 to 2 µM.

For `CCCN(C)c1cc2c(N3CCC(c4cc(F)ccc4OC)CC3)nc(C3CC3)nc2cc1C` [Example 123, {2-cyclopropyl-4-[4-(5-fluoro-2-methoxy-phenyl)-piperidin-1-yl]-7-methyl-quinazolin-6-yl}-methyl-propyl-amine], the EC50 is greater than 10 µM. As to `CN(CCOCCF)c1ccc2nc(C3(F)CC3)nc(N3CCC(c4ccccc4OCCF)CC3)c2c1` [Example 222, (2-(1-Fluoro-cyclopropyl)-4-{4-[2-(2-fluoro-ethoxy)-phenyl]-piperidin-1-yl}-quinazolin-6-yl)-[2-(2-fluoro-ethoxy)-ethyl]-methyl-amine], the EC50 is 2 to 10 µM.

On to `COc1ccccc1C1CCN(c2nc(C3CC3)nc3cnc(N(C)CCN4CCOCC4)cc23)CC1` [Example 134, 2-cyclopropyl-4-(4-(2-methoxyphenyl)piperidin-1-yl)-N-methyl-N-(2-morpholinoethyl)pyrido[3,4-d]pyrimidin-6-amine], for which the EC50 fell in the range of 0.5 to 2 µM. As for `CCOC(=O)CN(C)C1CCN(c2ccc3nc(C4CC4)nc(N4CCC(c5ccccc5OC)CC4)c3c2)CC1` [Example 93, [(1-{2-cyclopropyl-4-[4-(2-methoxy-phenyl)-piperidin-1-yl]-quinazolin-6-yl}-piperidin-4-yl)-methyl-amino]-acetic acid ethyl ester], the EC50 is greater than 10 µM.

Turning to `COc1ccccc1C1CCN(c2nc(C3(C)CCC3)nc3ccc(N(C)CCO)cc23)CC1` [Example 70, 2-{[4-[4-(2-Methoxy-phenyl)-piperidin-1-yl]-2-(1-methyl-cyclobutyl)-quinazolin-6-yl]-methyl-amino}-ethanol], the EC50 lay within 0.5 to 2 µM.
